Measurements published in publication PMC6410202, “Dual Action of the PN159/KLAL/MAP Peptide: Increase of Drug Penetration across Caco-2 Intestinal Barrier Model by Modulation of Tight Junctions and Plasma Membrane Permeability” (Pharmaceutics, 2019).

Test: Circular dichroism spectroscopy of the peptide
Type: physicochemical
Settings: CD
Method: Far-UV circular dichroism (CD) spectra of the peptides were recorded at 25°C temperature on a J-810 spectropolarimeter (JASCO International Co. Ltd., Tokyo, Japan). The CD spectra were measured between 260 nm and 185 nm with an optical pathlength of 1 mm, at a peptide concentration of 0.1 mg/mL in Milli-Q water diluted directly from powder. The bandwidth was 2 nm and data pitch 0.5 nm, the scan speed was set to 100 nm/min and the integration time was 1 sec. Ten spectra were accumulated and plotted. The data were analyzed by CDSSTR method. To test the thermostability of the peptide structure the CD spectra were recorded between 25 °C and 55 °C temperature with a ramp rate of 5 °C/min on a JASCO J-810 spectropolarimeter by using a Peltier sample holder. The CD spectra were measured immediately between 260 and 185 nm with an optical pathlength of 1 mm, the peptide concentration was 0.1 mg/mL in Milli-Q water. The bandwidth was 2 nm and data pitch 1 nm, the scan speed was set to 100 nm/min, and the integration time was 1 sec. Five spectra were accumulated and plotted.

With `CC(C)C[C@H](NC(=O)[C@H](C)NC(=O)[C@H](CCCCN)NC(=O)[C@H](CC(C)C)NC(=O)[C@H](C)NC(=O)[C@H](CC(C)C)NC(=O)[C@H](CCCCN)NC(=O)[C@H](CC(C)C)NC(=O)[C@H](C)NC(=O)[C@H](CC(C)C)NC(=O)[C@@H](N)CCCCN)C(=O)N[C@@H](CCCCN)C(=O)N[C@@H](C)C(=O)N[C@@H](C)C(=O)N[C@@H](CC(C)C)C(=O)N[C@@H](CCCCN)C(=O)N[C@@H](CC(C)C)C(=O)N[C@@H](C)C(N)=O` [PN159] the “Secondary structure, turns” value (25 °C, 0.1 mg/mL in water) was 24%, the “Secondary structure, unordered structure” value (25 °C, 0.1 mg/mL in water) was 34% and the “Secondary structure, α-helix” value (25 °C, 0.1 mg/mL in water) was 11%. For the same compound, the “Secondary structure, β-sheet” value (25 °C, 0.1 mg/mL in water) was 31% and the “Thermostability of secondary structure” value (between 25 and 55 °C) was “stable”.
